Source: ChEMBL document CHEMBL1137831, “Synthesis and antibacterial activity of some aryloxy/thioaryloxy oxazolidinone derivatives” (2004)
Values after ≈ are worked out from the molar mass of the structure shown.

Columns and labels:
Enterococcus faecium = assay: Minimal inhibitory concentration against Enterococcus faecium 6A-VRE; type: functional
Enterococcus faecalis [1] = assay: Minimal inhibitory concentration against Enterococcus faecalis (VRE) ATCC 346-VRE; type: functional
Serratia marcescens = assay: Minimal inhibitory concentration against Serratia marcescens ATCC 12999; type: functional
Escherichia coli = assay: Minimal inhibitory concentration against Escherichia coli ATCC 25922; type: functional
Bacillus cereus = assay: Minimal inhibitory concentration against Bacillus cereus; type: functional
Enterococcus durans = assay: Minimal inhibitory concentration against Enterococcus durans ATCC 581; type: functional
Klebsiella pneumoniae = assay: Minimal inhibitory concentration against Klebsiella pneumoniae ATCC 15380; type: functional
Salmonella typhi = assay: Minimal inhibitory concentration against Salmonella typhi (MDR) ICH 098; type: functional, Salmonella enterica subsp. enterica serovar Typhi; conditions: Salmonella enterica
Enterococcus faecalis [2] = assay: Minimal inhibitory concentration against Enterococcus faecalis ATCC 29212; type: functional
Staphylococcus aureus [3] = assay: Minimal inhibitory concentration against methicillin resistant Staphylococcus aureus ST450; type: functional
[4] = tested on: Staphylococcus epidermidis; assay: Minimal inhibitory concentration against Staphylococcus epidermidis ATCC 12228; type: functional
Staphylococcus aureus [5] = assay: Minimal inhibitory concentration against Staphylococcus aureus ATCC 25923; type: functional
[6] = tested on: Salmonella enterica subsp. enterica serovar Abony; assay: Minimal inhibitory concentration against Salmonella abony NCTC 6017; type: functional
Pseudomonas aeruginosa = assay: Minimal inhibitory concentration against Pseudomonas aeruginosa ATCC 27853; type: functional
[7] = tested on: Staphylococcus epidermidis; assay: Minimal inhibitory concentration against methicillin resistant Staphylococcus epidermidis ATCC 23760; type: functional
Staphylococcus aureus [8] = assay: Minimal inhibitory concentration against methicillin resistant Staphylococcus aureus ST450; value ranges from 4-16 ug/mL; type: functional
Staphylococcus aureus [9] = assay: Minimal inhibitory concentration against methicillin resistant Staphylococcus aureus ST450; value ranges from 4-8 ug/mL; type: functional
Staphylococcus aureus [10] = assay: Minimal inhibitory concentration against Staphylococcus aureus ATCC 25923; value ranges from 4-8 ug/mL; type: functional
Staphylococcus aureus [11] = assay: Minimal inhibitory concentration against methicillin resistant Staphylococcus aureus ST450; value ranges from 2-4 ug/mL; type: functional
Staphylococcus aureus [12] = assay: Minimal inhibitory concentration against methicillin resistant Staphylococcus aureus ST450; value ranges from 1-2 ug/mL; type: functional

Structure (SMILES)	MIC (Enterococcus faecium) [µg/mL]	MIC (Enterococcus faecalis [1]) [µg/mL]	MIC (Serratia marcescens) [µg/mL]	MIC (Escherichia coli) [µg/mL]	MIC (Bacillus cereus) [µg/mL]	MIC (Enterococcus durans) [µg/mL]	MIC (Klebsiella pneumoniae) [µg/mL]	MIC (Salmonella typhi) [µg/mL]	MIC (Enterococcus faecalis [2]) [µg/mL]	MIC (Staphylococcus aureus [3]) [µg/mL]	MIC [4] [µg/mL]	MIC (Staphylococcus aureus [5]) [µg/mL]	MIC [6] [µg/mL]	MIC (Pseudomonas aeruginosa) [µg/mL]	MIC [7] [µg/mL]	MIC (Staphylococcus aureus [8]) [µg/mL]	MIC (Staphylococcus aureus [9]) [µg/mL]	MIC (Staphylococcus aureus [10]) [µg/mL]	MIC (Staphylococcus aureus [11]) [µg/mL]	MIC (Staphylococcus aureus [12]) [µg/mL]
CC(=O)Nc1ccc(Sc2ccc(N3C[C@H](C/N=C(/S)NC4CC4)OC3=O)cc2F)cc1	8 (≈ 16.9 µM)	> 16	> 16	> 16	> 16	8 (≈ 16.9 µM)	> 16	> 16	8 (≈ 16.9 µM)	16 (≈ 33.7 µM)	8 (≈ 16.9 µM)	16 (≈ 33.7 µM)	> 16	> 16	8 (≈ 16.9 µM)	–	–	–	–	–
CC(=O)Nc1ccc(Oc2ccc(N3C[C@H](C/N=C(/S)NN)OC3=O)cc2F)cc1	4 (≈ 9.23 µM)	8 (≈ 18.5 µM)	> 16	> 16	> 16	4 (≈ 9.23 µM)	> 16	> 16	4 (≈ 9.23 µM)	–	4 (≈ 9.23 µM)	4 (≈ 9.23 µM)	> 16	> 16	8 (≈ 18.5 µM)	16 (≈ 36.9 µM)	–	–	–	–
CO/C(S)=N\C[C@H]1CN(c2ccc(Sc3ccc(NC(C)=O)cc3)c(F)c2)C(=O)O1	4 (≈ 8.9 µM)	8 (≈ 17.8 µM)	> 16	> 16	> 16	4 (≈ 8.9 µM)	> 16	> 16	4 (≈ 8.9 µM)	–	4 (≈ 8.9 µM)	–	> 16	> 16	8 (≈ 17.8 µM)	–	8 (≈ 17.8 µM)	8 (≈ 17.8 µM)	–	–
CC(=O)NC[C@H]1CN(c2ccc(Oc3ccc(NC(C)=O)cc3)c(F)c2)C(=O)O1	4 (≈ 9.97 µM)	4 (≈ 9.97 µM)	> 16	> 16	> 16	4 (≈ 9.97 µM)	> 16	> 16	4 (≈ 9.97 µM)	–	2 (≈ 4.98 µM)	2 (≈ 4.98 µM)	> 16	> 16	4 (≈ 9.97 µM)	–	–	–	4 (≈ 9.97 µM)	–
CC(=O)NC[C@H]1CN(c2ccc(Oc3ccccc3NC(C)=O)c(F)c2)C(=O)O1	> 16	> 16	> 16	> 16	> 16	> 16	> 16	> 16	> 16	> 16	> 16	> 16	> 16	> 16	> 16	–	–	–	–	–
CC(=O)Nc1ccc(Sc2ccc(N3C[C@H](C/N=C(/S)NN)OC3=O)cc2F)cc1	16 (≈ 35.6 µM)	8 (≈ 17.8 µM)	> 16	> 16	> 16	8 (≈ 17.8 µM)	> 16	> 16	4 (≈ 8.9 µM)	–	4 (≈ 8.9 µM)	4 (≈ 8.9 µM)	> 16	> 16	4 (≈ 8.9 µM)	–	8 (≈ 17.8 µM)	–	–	–
CC(=O)NC[C@H]1CN(c2ccc(Sc3ccc(NC(C)=O)cc3)c(F)c2)C(=O)O1	2 (≈ 4.79 µM)	2 (≈ 4.79 µM)	> 16	> 16	> 16	2 (≈ 4.79 µM)	> 16	> 16	2 (≈ 4.79 µM)	–	1 (≈ 2.4 µM)	1 (≈ 2.4 µM)	> 16	> 16	2 (≈ 4.79 µM)	–	–	–	–	2 (≈ 4.79 µM)
CO/C(S)=N\C[C@H]1CN(c2ccc(Oc3ccc(NC(C)=O)cc3)c(F)c2)C(=O)O1	16 (≈ 36.9 µM)	8 (≈ 18.5 µM)	> 16	> 16	> 16	8 (≈ 18.5 µM)	> 16	> 16	8 (≈ 18.5 µM)	16 (≈ 36.9 µM)	8 (≈ 18.5 µM)	8 (≈ 18.5 µM)	> 16	> 16	16 (≈ 36.9 µM)	–	–	–	–	–
CC(=O)Nc1ccc(Oc2ccc(N3C[C@H](C/N=C(\N)S)OC3=O)cc2F)cc1	4 (≈ 9.56 µM)	4 (≈ 9.56 µM)	> 16	> 16	> 16	2 (≈ 4.78 µM)	> 16	> 16	4 (≈ 9.56 µM)	–	2 (≈ 4.78 µM)	2 (≈ 4.78 µM)	> 16	> 16	4 (≈ 9.56 µM)	–	–	–	4 (≈ 9.56 µM)	–
CC(=O)NC[C@H]1CN(c2ccc(Oc3cccc(NC(C)=O)c3)c(F)c2)C(=O)O1	> 16	> 16	> 16	> 16	> 16	> 16	> 16	> 16	> 16	> 16	> 16	> 16	> 16	> 16	> 16	–	–	–	–	–
CC(=O)Nc1ccc(Sc2ccc(N3C[C@H](C/N=C(\N)S)OC3=O)cc2F)cc1	2 (≈ 4.6 µM)	2 (≈ 4.6 µM)	> 16	> 16	> 16	2 (≈ 4.6 µM)	> 16	> 16	2 (≈ 4.6 µM)	–	1 (≈ 2.3 µM)	1 (≈ 2.3 µM)	> 16	> 16	2 (≈ 4.6 µM)	–	–	–	–	2 (≈ 4.6 µM)
CC(=O)Nc1ccc(Oc2ccc(N3C[C@H](C/N=C(/S)N(C)C)OC3=O)cc2F)cc1	> 16	16 (≈ 35.8 µM)	> 16	> 16	> 16	16 (≈ 35.8 µM)	> 16	> 16	16 (≈ 35.8 µM)	16 (≈ 35.8 µM)	16 (≈ 35.8 µM)	16 (≈ 35.8 µM)	> 16	> 16	16 (≈ 35.8 µM)	–	–	–	–	–
CC(=O)Nc1ccc(Oc2ccc(N3C[C@H](C/N=C(/S)NC4CC4)OC3=O)cc2F)cc1	> 16	16 (≈ 34.9 µM)	> 16	> 16	> 16	16 (≈ 34.9 µM)	> 16	> 16	8 (≈ 17.4 µM)	16 (≈ 34.9 µM)	16 (≈ 34.9 µM)	> 16	> 16	> 16	16 (≈ 34.9 µM)	–	–	–	–	–
CC(=O)Nc1ccc(Sc2ccc(N3C[C@H](C/N=C(/S)N(C)C)OC3=O)cc2F)cc1	> 16	16 (≈ 34.6 µM)	> 16	> 16	> 16	16 (≈ 34.6 µM)	> 16	> 16	8 (≈ 17.3 µM)	> 16	16 (≈ 34.6 µM)	16 (≈ 34.6 µM)	> 16	> 16	16 (≈ 34.6 µM)	–	–	–	–	–
CC(=O)NC[C@H]1CN(c2ccc(N3CCOCC3)c(F)c2)C(=O)O1 [LINEZOLID]	2 (≈ 5.93 µM)	–	> 16	> 16	> 16	2 (≈ 5.93 µM)	> 16	> 16	–	–	2 (≈ 5.93 µM)	–	> 16	> 16	2 (≈ 5.93 µM)	–	–	–	–	–
